Starred links: 1 amine or outer side, 2 acyl side, 3 side chain; linkers in the order of their positions; H or OH if unused. Positions of bridges follow the written chain, without caps; N, C: chain ends. Non-standard residues stand in square brackets, D forms with d. Residues, ends and D or L forms follow the SMILES beside them. *: point of attachment. X2 = C[C@H](Oc1ccc([C@H](N[*:1])C(=O)[*:2])cc1)[C@@]1(/C=C/C(=O)[*:3])CO1; X1 = CC(C)[C@H](O)[C@H](C)C(=O)*; aIle = CC[C@@H](C)[C@H](N)C(=O)O; dNMeF = CN[C@H](Cc1ccccc1)C(=O)O; aThr = C[C@H](O)[C@H](N)C(=O)O
What was measured:
[1] = system: D21f2tolC pRL663 and D21f2tolC pRL706 derivatives; assay: Broth microdilution resistance levels of induced Sal-resistant mutants (plasmid-borne rpoC / rpoB); type: cell-based, Escherichia coli; conditions: for resistance level (MIC/MICwild-type): induced mutant
Experimental: Isolation of Sal-Resistant Mutants: Induced Sal-Resistant Mutants. E. coli Random mutagenesis of rpoC in plasmid pRL663 and rpoB in plasmid pRL706 was performed as in 24, mutagenenized plasmids were passaged in E. coli XL1-Blue (Stratgene, Inc.) as in 24, mutagenized plasmids were introduced by transformation into E. coli D21f2tolC as in 24, and transformants (˜1×10^4 cells) were applied to LB-agar plates containing 1 μg/ml Sal, 200 μg/ml ampicillin, and 1 mM IPTG, and plates were incubated 16-24 h at 37° C. Sal-resistant mutants were identified by the ability to form colonies on this medium and were confirmed by re-streaking on the same medium.
(§1) Quantitation of Resistance to Sal. Resistance to Sal was quantified by performing broth microdilution assays. Single colonies were inoculated into 3 ml LB broth, and incubated 3-6 h at 37° C. with shaking. Diluted aliquots (2×10^4 cells in 98 μl LB broth; concentrations determined using OD600=1 for 10^9 cells) were dispensed into wells of a 96-well plate, were supplemented with 2 μl of a 2-fold dilution series of Sal in methanol (final concentrations of […], 0.390, 0.195, 0.0975, 0.0488, 0.0244, 0.0122, and 0.00609 μg/ml) or 2 μl of a solvent blank, and were incubated 16 h at 37° C. with shaking. The minimum inhibitory concentration (MIC) was defined as the lowest tested concentration of Sal that inhibited bacterial growth by 95%.

[2] = system: Sal-resistant mutants of E. coli D21f2tolC (rpoC / rpoB substitutions); assay: Broth microdilution resistance / cross-resistance levels of spontaneous Sal-resistant mutants; type: cell-based, Escherichia coli
Experimental: Isolation of Sal-Resistant Mutants: Spontaneous Sal-Resistant Mutants. E. coli D21f2tolC (6) was cultured to saturation in 5 ml LB broth (7) at 37° C., cultures were centrifuged, and cell pellets (˜3×10^9 cells) were re-suspended in 50 μl LB broth and plated on LB agar (7) containing 1.2 μg/ml Sal (a concentration four times the minimal concentration required to prevent growth of wild-type cells under these conditions), and incubated 24-48 h at 37° C. Sal-resistant mutants were identified by the ability to form colonies on this medium and were confirmed by re-streaking on the same medium.
as §1
Quantitation of Cross-Resistance to Rifampin and CBR703. Cross-resistance levels were determined analogously to resistance levels, using 0.12-0.78 μg/ml of rifampin (Sigma, Inc.) and 0.39-25 μg/ml of CBR703 (Maybridge, Inc.).

[3] = rpoC (RNAP β′ subunit) 780 Arg→Cys

**Q.** With `CC[C@@H](C)[C@@H]1NC(=O)[C@H](NC(=O)[C@@H](C)[C@@H](O)C(C)C)[C@H](C)OC(=O)[C@H]2COC(=O)CNC(=O)/C=C/[C@@]3(CO3)[C@H](C)Oc3ccc(cc3)[C@H](NC1=O)C(=O)N(C)[C@H](Cc1ccccc1)C(=O)N[C@@H]([C@H](C)O)C(=O)N2` [Sal, salinamide A] (X1-[dT][aIle][X2][dNMeF][aThr][dS]; ester 1-C; linker 3-6 via G) as the compound, how does the “MIC with wild-type rpoC and wild-type rpoB” value ([1]; D21f2tolC pRL663 and D21f2tolC pRL706 derivatives, wild-type plasmid genes) read?
**A.** The value was “^aAssayed as D21f2tolC pRL663 and D21f2tolC pRL706 derivatives; MIC with wild-type rpoC and wild-type rpoB was 0.098 μg/ml”.

**Q.** What about the “resistance level (MIC/MICwild-type)” value ([1]; rpoB (RNAP β subunit) 561 Ile→Ser) of the same compound?
**A.** The value was 2.

**Q.** What about the “resistance level (MIC/MICwild-type)” value ([1]; rpoB (RNAP β subunit) 665 Ala→Glu) of the same compound?
**A.** The value was 8.

**Q.** What about the “resistance level (MIC/MICwild-type)” value ([1]; rpoB (RNAP β subunit) 680 Leu→Met) of the same compound?
**A.** The value was 4.

**Q.** And the “resistance level (MIC/MICwild-type)” value ([1]; rpoC (RNAP β′ subunit) 758 Pro→Thr)?
**A.** Its value is 4.

**Q.** And the “resistance level (MIC/MICwild-type)” value [1, 3]?
**A.** Its value is 8.

**Q.** And the “resistance level (MIC/MICwild-type)” value ([1]; rpoC (RNAP β′ subunit) 782 Gly→Cys)?
**A.** Its value is 8.

**Q.** And the “resistance to Sal, all analyzed mutants” value ([2]; all analyzed Sal-resistant mutants (Tables 2, 3))?
**A.** Its value is “at least 2 fold”.

**Q.** What about the “resistance level (MIC/MICwild-type)” value ([2]; rpoB (RNAP β subunit) 569 Ile→Ser) of the same compound?
**A.** Its value is >16.

**Q.** And the “resistance level (MIC/MICwild-type)” value ([2]; rpoB (RNAP β subunit) 675 Asp→Ala)?
**A.** Its value is >16.

**Q.** And the “resistance level (MIC/MICwild-type)” value ([2]; rpoB (RNAP β subunit) 677 Asn→His)?
**A.** The value was >16.

**Q.** What about the “resistance level (MIC/MICwild-type)” value ([2]; rpoB (RNAP β subunit) 677 Asn→Lys) of the same compound?
**A.** Its value is >16.

**Q.** What about the “resistance level (MIC/MICwild-type)” value ([2]; rpoC (RNAP β′ subunit) 690 Asn→Asp) of the same compound?
**A.** Its value is 16.

**Q.** And the “resistance level (MIC/MICwild-type)” value ([2]; rpoC (RNAP β′ subunit) 697 Met→Val (one isolate also 1054 Thr→Ala))?
**A.** Its value is >16.

**Q.** What about the “resistance level (MIC/MICwild-type)” value ([2]; rpoC (RNAP β′ subunit) 738 Arg→Cys) of the same compound?
**A.** Its value is >16.

**Q.** What about the “resistance level (MIC/MICwild-type)” value ([2]; rpoC (RNAP β′ subunit) 738 Arg→His) of the same compound?
**A.** The value was >16.

**Q.** And the “resistance level (MIC/MICwild-type)” value ([2]; rpoC (RNAP β′ subunit) 738 Arg→Pro)?
**A.** The value was >16.

**Q.** And the “resistance level (MIC/MICwild-type)” value ([2]; rpoC (RNAP β′ subunit) 738 Arg→Ser)?
**A.** Its value is >16.

**Q.** What about the “resistance level (MIC/MICwild-type)” value ([2]; rpoC (RNAP β′ subunit) 748 Ala→Glu) of the same compound?
**A.** Its value is 16.

**Q.** What about the “resistance level (MIC/MICwild-type)” value ([2]; rpoC (RNAP β′ subunit) 758 Pro→Ser) of the same compound?
**A.** Its value is 16.

**Q.** And the “resistance level (MIC/MICwild-type)” value ([2]; rpoC (RNAP β′ subunit) 763 Phe→Cys)?
**A.** Its value is 16.

**Q.** And the “resistance level (MIC/MICwild-type)” value ([2]; rpoC (RNAP β′ subunit) 775 Ser→Ala)?
**A.** The value was 8.

**Q.** And the “resistance level (MIC/MICwild-type)” value ([2]; rpoC (RNAP β′ subunit) 779 Ala→Thr)?
**A.** The value was >16.

**Q.** What about the “resistance level (MIC/MICwild-type)” value ([2]; rpoC (RNAP β′ subunit) 779 Ala→Val) of the same compound?
**A.** The value was >16.

**Q.** What about the “resistance level (MIC/MICwild-type)” value [2, 3] of the same compound?
**A.** Its value is >16.

**Q.** And the “resistance level (MIC/MICwild-type)” value ([2]; rpoC (RNAP β′ subunit) 783 Leu→Arg)?
**A.** The value was >16.

**Q.** What about the “resistance to Sal, thirteen mutants” value ([2]; thirteen of the Sal-resistant mutants) of the same compound?
**A.** The value was > 16 fold.
